The values that follow come from patent US20240199625A1, “BICYCLIC HETEROCYCLIC FGFR4 INHIBITOR, PHARMACEUTICAL COMPOSITION AND PREPARATION COMPRISING SAME, AND APPLICATION THEREOF” (Hangzhou Apeloa Medicine Research Institute Co., Ltd., priority 2021, published 2024).

Structures are written as SMILES. pIC50: −log10 of the molar value. Like-named read-outs stand apart in the source and are kept apart here.

In assay [1] the target is tyrosine kinase FGFR4 (Homo sapiens (Human), UniProt P22455). The experiment in a line: In vitro kinase test (HTRF), FGFR4. Type of assay: biochemical. The settings on record: for pIC50: HTRF, 60 min preincubation, 40 min reaction at 37° C.; for FGFR1 IC50 / FGFR4 IC50 ratio (FGFR4 selectivity): ratio of the FGFR1 and FGFR4 IC50 values. The protocol:
(§1) The effect of compounds of the present invention on tyrosine kinase FGFR1 and FGFR4 activity is evaluated by an in vitro kinase test. The method used in the test was homogeneous time-resolved fluorescence (HTRF).
(§2) Compound preparation: Add 45 μL of DMSO to 5 μL of stock solution at a concentration of 10 mM to prepare the solution LY2874455 at 1000 µM; then add 12 μL of the compound at 1000 μM to 88 µL of DMSO to prepare the solution LY2874455 at 120 μM as the starting concentration; add 48 μL of DMSO to 2 μL of stock solution at a concentration of 10 mM to prepare the solution BLU554 at 400 μM as the starting concentration; add 15 μL of DMSO to 10 μL of sample compound stock solution at a concentration of 10 mM to prepare a sample compound solution at 4 mM as the starting concentration; transfer the compound solution to the target plate with the dispenser Echo.
(§3) Kinase reaction: Add 5 μL of kinase solution to each well, incubate the compound and kinase at room temperature for 60 min, add 5 μL of substrate and ATP mixture to start reacting at 37° C. for a certain period of time (30 min for FGFR1 kinase test, and 40 min for FGFR4 kinase test), and then add 10 μL of X1665 and antibody detection reagent mixture to stop; after 60 min of incubation at room temperature, read the TR-FRET signal with microplate reader SPARK 10M at the transmit wavelength of 665 nm/612 nM. Test enzyme activity at 10 concentrations for each compound, and calculate the IC50 value of the compound with the data with the analysis software, as shown in Table 1.

Assay [2] concerns the target tyrosine kinase FGFR1 (Homo sapiens (Human), UniProt P11362). The experiment in a line: In vitro kinase test (HTRF), FGFR1. The following applies: 60 min preincubation, 30 min reaction at 37° C. Type of assay: biochemical. Here is the method:
as §1, §2, §3
(In general: Time-resolved FRET reads energy transfer from a long-lived donor to a nearby acceptor.)

Assay [3] deals with human hepatoma cells Hep3B. In words: Cell proliferation test (CELL TITER-GLO). Type of assay: cell-based. The following applies: 3 days incubation, CTG, read-out: IC50 Value of Compound for Hep3B Cells. The protocol:
The effect of the compounds of the present invention on the proliferation of human hepatoma cells Hep3B is evaluated by an in vitro cell test. The method used in the test was CELL TITER-GLO (CTG).
Cell plating: Take Hep3B cells in the logarithmic growth phase, digest, centrifuge at 1,000 rpm for 5 min at room temperature and collect, resuspend with EMEM medium of 10% FBS and count, and inoculate into a 384-well microplate (#3765) at a density of 800 cells/well, 20 μL in each.
Compound preparation: Dissolve the compound in DMSO to prepare a stock solution at a concentration of 10 mM, dilute the sample compound stock solution to 2 mM with DMSO (6 μL of the stock solution plus 24 μL of DMSO) as the starting concentration, and dilute the control compound stock solution to 200 μM with DMSO (2 μL of the stock solution plus 98 μL of DMSO) as the starting concentration; dilute the compound 9 times with DMSO in gradient by 3 folds, and then dilute the compound to 40 times the final concentration dose with cell culture medium (2 μL of the compound plus 78 μL of […]).
Cell dosing: Add 5 μL (5×) of the compound to the corresponding wells, make sure the final concentrations of sample compounds are respectively 10000 nM, 3333 nM, 1111 nM, 370.37 nM, 123.46 nM, 41.15 nM, 13.72 nM, 4.57 nM, 1.52 nM, 0.50 nM, take 0.5% DMSO as the negative control, and incubate the microplate at 37° C. in 5% C02 for 3 days.
CTG detection: After 3 days of incubation, add 5 μL of Cell Titer-Glo® reagent per well, incubate on a shaker at 300 rpm for 60 min protected from light at room temperature, read the luminescence signals with microplate reader Spark 10M, and calculate the semi-inhibitory concentration of the compound on cell proliferation, that is, the IC50 value, with the analysis software, as shown in Table 2.

tyrosine kinase FGFR4, sequence (P22455 22-802): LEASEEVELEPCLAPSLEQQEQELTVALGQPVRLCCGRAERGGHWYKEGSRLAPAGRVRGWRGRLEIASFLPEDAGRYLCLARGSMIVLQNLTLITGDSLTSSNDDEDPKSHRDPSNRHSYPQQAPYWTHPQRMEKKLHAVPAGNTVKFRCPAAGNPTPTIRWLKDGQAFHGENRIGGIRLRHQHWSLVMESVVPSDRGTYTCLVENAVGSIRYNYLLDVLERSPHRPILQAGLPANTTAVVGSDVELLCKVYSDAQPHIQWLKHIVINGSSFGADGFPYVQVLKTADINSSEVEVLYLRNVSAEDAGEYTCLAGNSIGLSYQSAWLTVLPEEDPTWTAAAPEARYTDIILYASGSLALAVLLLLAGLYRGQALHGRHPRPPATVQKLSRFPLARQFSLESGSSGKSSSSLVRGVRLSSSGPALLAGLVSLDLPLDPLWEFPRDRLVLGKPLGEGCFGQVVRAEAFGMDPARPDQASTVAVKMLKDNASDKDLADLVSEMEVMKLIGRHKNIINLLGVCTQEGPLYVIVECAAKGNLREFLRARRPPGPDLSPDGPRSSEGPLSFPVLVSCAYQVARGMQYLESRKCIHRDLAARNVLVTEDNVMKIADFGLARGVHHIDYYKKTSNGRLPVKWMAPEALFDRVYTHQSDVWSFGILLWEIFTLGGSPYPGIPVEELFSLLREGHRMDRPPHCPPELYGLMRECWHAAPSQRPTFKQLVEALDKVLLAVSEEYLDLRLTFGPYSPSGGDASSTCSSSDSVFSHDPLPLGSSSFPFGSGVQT
tyrosine kinase FGFR1, sequence (P11362 22-822): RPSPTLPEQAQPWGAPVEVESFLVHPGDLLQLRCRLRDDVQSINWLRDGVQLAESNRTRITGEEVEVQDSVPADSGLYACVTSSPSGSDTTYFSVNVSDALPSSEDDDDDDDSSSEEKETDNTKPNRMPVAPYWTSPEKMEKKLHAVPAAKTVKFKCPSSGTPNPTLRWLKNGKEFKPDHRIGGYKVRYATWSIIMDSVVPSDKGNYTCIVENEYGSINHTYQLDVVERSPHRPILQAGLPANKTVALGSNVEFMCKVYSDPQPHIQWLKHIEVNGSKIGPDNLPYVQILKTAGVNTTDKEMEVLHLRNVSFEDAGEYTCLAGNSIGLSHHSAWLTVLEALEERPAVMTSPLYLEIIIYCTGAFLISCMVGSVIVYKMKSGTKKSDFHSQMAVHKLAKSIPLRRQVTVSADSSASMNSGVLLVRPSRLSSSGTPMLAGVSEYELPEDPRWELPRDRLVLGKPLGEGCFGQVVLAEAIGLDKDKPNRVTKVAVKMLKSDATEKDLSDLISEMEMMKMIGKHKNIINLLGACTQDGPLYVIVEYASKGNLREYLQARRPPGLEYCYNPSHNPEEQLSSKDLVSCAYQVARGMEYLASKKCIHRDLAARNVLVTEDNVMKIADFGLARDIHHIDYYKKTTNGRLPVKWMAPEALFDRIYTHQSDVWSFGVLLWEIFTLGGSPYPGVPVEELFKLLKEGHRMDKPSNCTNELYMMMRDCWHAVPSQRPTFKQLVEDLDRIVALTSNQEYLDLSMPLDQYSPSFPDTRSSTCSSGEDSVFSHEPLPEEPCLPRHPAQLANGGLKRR

With `C=CC(=O)Nc1ccccc1Nc1cc2c(cn1)CN(c1c(F)c(OC)nc(OC)c1F)C(=O)C21CC1` [Compound 7, N-(2-((2′-(3,5-difluoro-2,6-dimethoxypyridine-4-yl)-3′-oxo-2′,3′-dihydro-1′H-spiro[cyclopropane-1,4′-[2,7]naphthol]-6′-yl)amino)phenyl)acrylamide], the pIC50 (usually the negative decadic logarithm of the IC50, by convention in mol/L) in assay [1] was 8.27; in assay [2] it was 5.37. For the same molecule, the “FGFR1 IC50 / FGFR4 IC50 ratio (FGFR4 selectivity)” value in assay [1] stood at 782.
With `C=CC(=O)Nc1cc(N2CCOCC2)c(F)cc1Nc1cc2c(cn1)CN(c1c(F)c(OC)nc(OC)c1F)C(=O)C21CC1` [Compound 14, N-(2-((2′-(3,5-difluoro-2,6-dimethoxypyridine-4-yl)-3′-oxo-2′,3′-dihydro-1′H-spiro[cyclopropane-1,4′-[2,7]naphthyridine]-6′-yl)-amino)-4-fluoro-5-morpholinophenyl)acrylamide], the pIC50 in assay [1] was 8.59; in assay [2], less than 5.00; in assay [3] (Homo sapiens, Hep3B, 72 h), 7.42. Further, in assay [1], the “FGFR1 IC50 / FGFR4 IC50 ratio (FGFR4 selectivity)” value is 3817.
On to `C=CC(=O)NCc1cc2c(cn1)CN(c1c(F)c(OC)nc(OC)c1F)C(=O)C21CC1` [Compound 1, N-((2′-(3,5-difluoro-2,6-dimethoxypyridine-4-yl)-3′-oxo-2′,3′-dihydro-1′H-spiro[cyclopropane-1,4′-[2,7]naphthine]-6′-yl)methyl) acrylamide], for which the pIC50 is 8.07 in assay [1], 5.44 in assay [2] and 7.28 in assay [3]. Further, the “FGFR1 IC50 / FGFR4 IC50 ratio (FGFR4 selectivity)” value in assay [1] turned out to be 426.
As to `C=CC(=O)Nc1cc(N2CCOCC2C)ccc1Nc1cc2c(cn1)CN(c1c(F)c(OC)nc(OC)c1F)C(=O)C21CC1` (centres unmarked) [Compound 15, N-(2-((2′-(3,5-difluoro-2,6-dimethoxypyridine-4-yl)-3′-oxo-2′,3′-dihydro-1′H-spiro[cyclopropane-1,4′-[2,7]naphthyridine]-6′-yl)-amino)-5-(3-methomorpholinyl)phenyl)acrylamide], the pIC50 in assay [1] is 9.20; in assay [2] it was 5.64; in assay [3] it was 7.82. Moreover, the “FGFR1 IC50 / FGFR4 IC50 ratio (FGFR4 selectivity)” value in assay [1] amounted to 3617.
In the case of `C=CC(=O)Nc1cccc(C)c1Nc1cc2c(cn1)CN(c1c(F)c(OC)nc(OC)c1F)C(=O)C21CC1` [Compound 8, N-(2-((2′-(3,5-difluoro-2,6-dimethoxypyridine-4-yl)-3′-oxo-2′,3′-dihydro-1′H-spiro[cyclopropane-1,4′-[2,7]naphthyridine]-6′-yl)amino)-3-methylphenyl)acrylamide], the pIC50 in assay [1] was 8.57; in assay [2] it was 5.07; in assay [3] (Homo sapiens, Hep3B, 72 h), 7.25. In addition, the “FGFR1 IC50 / FGFR4 IC50 ratio (FGFR4 selectivity)” value in assay [1] is 3172.
With `C=CC(=O)Nc1cc(N2CCC(N3CCOCC3)CC2)ccc1Nc1cc2c(cn1)CN(c1c(F)c(OC)nc(OC)c1F)C(=O)C21CC1` [Compound 5, N-(2-((2′-(3,5-difluoro-2,6-dimethoxypyridine-4-yl)-3′-oxo-2′,3′-dihydro-1′H-spiro[cyclopropane-1,4′-[2,7]naphthyridine]-6′-yl)-amino)-5-(4-morpholinopiperidin-1-yl)phenyl)acrylamide], the pIC50 was 9.52 in assay [1] and 8.22 in assay [2]. Besides, the “FGFR1 IC50 / FGFR4 IC50 ratio (FGFR4 selectivity)” value in assay [1] worked out at 20.
For `C=CC(=O)N[C@H]1CCOC[C@H]1Nc1ncc2cc(-c3c(Cl)c(OC)cc(OC)c3Cl)ccc2n1` [BLU554, reference compound], the pIC50 was 8.22 in assay [1]; 6.20 in assay [2]; 7.42 in assay [3] (Homo sapiens, Hep3B, 72 h).
`C=CC(=O)Nc1cc(N2CCOCC2)ccc1Nc1cc2c(cn1)CN(c1c(F)c(OC)nc(OC)c1F)C(=O)C21CC1` [Compound 10, N-(2-((2′-(3,5-difluoro-2,6-dimethoxypyridine-4-yl)-3′-oxo-2′,3′-dihydro-1′H-spiro[cyclopropane-1,4′-[2,7]naphthyridine]-6′-yl)-amino)-5-morpholinophenyl) acrylamide]: the negative logarithm of the IC50 (pIC50) in assay [1] is 9.17; in assay [2], 6.01; in assay [3] (Homo sapiens, Hep3B, 72 h), 7.85. Further, the “FGFR1 IC50 / FGFR4 IC50 ratio (FGFR4 selectivity)” value in assay [1] is listed as 1468.
